Assay results reported in patent publication US9650674B2, “Nucleic acid probes and methods of using the same” (Board of Trustees University of Arkansas, priority 2012, dated 2017).
{Cy5.5} = Cy5.5 cyanine dye label

Experiments:
[1] = Alkaline denaturing of probes, kinetic fluorescence; type: physicochemical; conditions: alkaline buffer
Procedure: Lastly, the probes' integrity was tested by alkaline denaturing. The probes were treated with alkaline buffer and kinetic detection of the fluorescence was performed. […] AB259.1, AB259.3 and AB259.5 gained 40%, 81%, and 85% of fluorescence, respectively.
(§1) All cell-free experiments were performed using the Bio-Tek Synergy 5 fluorescent plate reader. Before experiments, optimal excitation and emission wavelengths were determined. For this, excitation and emission were scanned in the ranges of 600-680 nm and 690-705 nm, respectively. The optimal excitation/emission was determined to be 665/703 nm. All kinetic and endpoint measurements were done in a total volume of 100 μl at 37° C. Unless stated otherwise, DNA substrate was used in final concentration 0.5 μM reconstituted in endonuclease activity assay (EAA) buffer (2 mM CaCl2, 5 mM MgCl2, 10 mM Tris-HCl, pH 7.4) in a 96-well plate. After measurement of starting fluorescence, DNase I or tested material (diluted 1:20 urine or 1:100 serum) were added to the reconstituted probe, rapidly mixed and fluorescence was monitored for up to 60 min with 30-sec intervals. In some instances, EDTA (final concentration 200 μM) or NaOH (50 mM) was added to terminate the reaction. For the experiments that involved assessment of fluorescence after DNA denaturing, probes were tested in Cepheid real-time PCR system using Cy5 setting (Sunnyvale, Calif.).

[2] = target: T1, DNase I (Homo sapiens, UniProt P24855); experiment: Kinetic fluorescence of probes exposed to DNase I in vitro; type: biochemical
T1 construct: purchased Sigma (St. Louis, Mo.)
T1 sequence (P24855 23-282): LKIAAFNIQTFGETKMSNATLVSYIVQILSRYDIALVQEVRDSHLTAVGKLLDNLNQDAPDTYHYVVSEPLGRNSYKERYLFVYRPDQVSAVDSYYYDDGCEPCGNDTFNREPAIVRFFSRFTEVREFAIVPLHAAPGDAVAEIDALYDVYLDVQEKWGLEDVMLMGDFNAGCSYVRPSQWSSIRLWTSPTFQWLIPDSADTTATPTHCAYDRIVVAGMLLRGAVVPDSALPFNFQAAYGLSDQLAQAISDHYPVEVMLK
Procedure: It was hypothesized that exposure of the probes to endonucleases would lead to DNA cleavage and dissociation of protruded strand from the hairpin (FIG. 2A). To assess which of the proposed probes is the best to measure endonuclease activity, the probes (0.5 μM) were exposed with recombinant human DNase I (1 μg/ml) and the kinetic fluorescence curves were recorded. Twenty min into the reaction, AB259.1, AB259.3 and AB259.5 gained 1.75-, 2.6- and 1.62-fold fluorescence, respectively, compared to the baseline (FIG. 2B). At 20-25 min, AB259.1 and AB259.3 reached the plateaus. […] Therefore, AB259.3 was chosen for further experiments.
To detect specificity of the assay to DNase I that is a Ca/Mg-dependent endonuclease, AB259.3 probe was tested with 1 μg/ml DNase I in the presence of Ca++ and Mg++ (EAA buffer), in absence of the cations (deionized water), or in excess of EDTA (200 μM). […] Finally, it was tested whether AB259.3 probe will detect inhibition of DNase I activity by DNase I inhibitors such as ZnCl2 and Zn-diisopropyl salicylate (Zn-DIPS).
as §1

[3] = test system: WT and DNase I KO mice; experiment: Intravital imaging of endonuclease activity in kidneys
Description: At the next step, WT and DNase I KO mice were anesthetized and intravenously administered with 50 nmol/kg of AB259.3 probe followed by intravital imaging using Xenogen-IVIS.
To additionally confirm preferential accumulation and processing of AB259.3 probe in kidneys, separate set of mice was deeply anesthetized and subjected to abdominal incision and real-time intravital visualization of left kidney while performing intravenous injection of AB259.3 probe. […] For this, DNase I KO animals were subjected to open surgery that was used to administer 5 μl DNase I (0.1 mg/ml) to subcapsular space of upper ventral zone of left kidney. To control effect of DNase I, additional WT and DNase I KO mice were injected with same volume of the vehicle. Immediately after injection, mice were injected with 50 nmol/kg of AB259.3 probe intravenously and then imaged in a Xenogen-IVIS.
Male DNase I KO mice and their WT counterparts at the age 8-10 weeks were used for all experiments. All procedures with mice were performed under general anesthesia with 50 mg/kg ketamine. For subcutaneous administration, mice were injected with 10 μl of 0.1 μM AB259.3 in the dorsal subcutaneous site. For systemic visualization, AB259.3 was injected intravenously at 50 nmol/kg in tail vein.
Imaging of live and euthanized mice or their isolated organs were performed using Xenogen IVIS Image System 200 (Caliper Life Sciences, Hopkinton, Mass.) equipped with Living Image® Software.

[4] = test system: WT and DNase I KO mice; experiment: Intravital assessment in other organs (bilateral kidney ligation or cationic liposomes); conditions: imaging 3 hours after injection; FIGS. 10A and 10B
Procedure: To check an ability of probe to measure endonuclease activity on other organs, the renal distribution of AB259.3 probe was challenged by two complementary approaches. First group of mice was subjected to bilateral kidney ligation followed by intravital administration of AB259.3 probe and imaging in 3 hours after injection. […] Another group of mice was injected with AB259.3 probe packed in cationic liposomes in attempt to make probe delivery bioavailable to all organs and tissues and less specific to kidneys.
Male DNase I KO mice and their WT counterparts at the age 8-10 weeks were used for all experiments. All procedures with mice were performed under general anesthesia with 50 mg/kg ketamine. For subcutaneous administration, mice were injected with 10 μl of 0.1 μM AB259.3 in the dorsal subcutaneous site. For systemic visualization, AB259.3 was injected intravenously at 50 nmol/kg in tail vein. […] Bilateral kidney ligation was performed on anesthetized DNase I KO or WT mice. Renal pedicles were surgically ligated using 4.0 silk sutures. […]
Imaging of live and euthanized mice or their isolated organs were performed using Xenogen IVIS Image System 200 (Caliper Life Sciences, Hopkinton, Mass.) equipped with Living Image® Software. […] Quantification of the manually designated areas was performed based on average radiant efficiency with the fixed min-max dynamic range.

## [Cy5.5]AACACTCCGATGAGTGTAGAATGT[Cy5.5] (DNA, 5' {Cy5.5}, 3' {Cy5.5}, backbone not given here) [AB259.3]
[1]
  gain of fluorescence on alkaline denaturing: 81%
[2]; different concentrations of DNase I, FIG. 2C
  dependence of kinetic reaction on DNase I concentration: linear correlation between mean velocity (Vm) of the kinetic reaction and DNase I concentration
[2]; probe 0.5 μM, DNase I 1 μg/ml, twenty min into the reaction, FIG. 2B
  gain of fluorescence compared to baseline: 2.6 fold
[3]; 50 nmol/kg intravenous, FIGS. 7A and 7B
  time to plateau of fluorescence in kidneys, intravital imaging: 10 min
[3]; 50 nmol/kg intravenous, FIGS. 7C and 7D
  retention of fluorescence by kidneys: at least 5 hours
[3]; abdominal incision, intravenous injection, FIG. 7E
  time to plateau of Cy5.5 fluorescence in exposed left kidney, real-time: 10 min
[4]
  probe accumulation after bilateral kidney ligation: accumulation in kidneys was completely abolished
